Results as given in US7091248B2, “Treatment of adrenocortical hypersecretion and tumor growth” (priority 2001, dated 2006).
Where “and” joins values, the source holds several entries; their conditions need not be identical. Equal entries are not always repeated. Entries after “also recorded” stand apart in the source; their conditions may differ. Where two headings read alike, the source gives them in different places.

Legend:
[1] = target: T1, CYP 11B1 (Homo sapiens, UniProt P15538); set-up: endogenous in cells; host or cells: H295R human adrenocortical carcinoma cell line; details: 10 μM; H295R cells; cited from earlier work
T1 sequence (P15538 25-503): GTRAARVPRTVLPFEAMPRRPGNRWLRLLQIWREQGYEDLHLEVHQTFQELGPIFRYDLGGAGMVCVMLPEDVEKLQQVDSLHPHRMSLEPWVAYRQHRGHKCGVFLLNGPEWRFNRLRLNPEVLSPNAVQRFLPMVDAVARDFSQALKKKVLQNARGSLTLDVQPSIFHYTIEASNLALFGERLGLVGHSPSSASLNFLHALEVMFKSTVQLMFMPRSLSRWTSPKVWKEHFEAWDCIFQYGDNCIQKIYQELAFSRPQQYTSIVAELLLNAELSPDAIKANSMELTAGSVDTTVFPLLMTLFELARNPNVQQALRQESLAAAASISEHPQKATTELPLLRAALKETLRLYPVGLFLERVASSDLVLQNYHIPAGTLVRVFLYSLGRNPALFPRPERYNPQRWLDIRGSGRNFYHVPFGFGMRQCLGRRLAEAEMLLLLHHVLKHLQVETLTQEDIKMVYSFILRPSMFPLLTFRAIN

[2] = system: mouse adrenal slices; details: cited from earlier work; for irreversible binding in mouse adrenal cortex slices: ex vivo slice culture
[3] = system: adrenocortical carcinoma cells; experiment: Autoradiography of slices from a lymphnode metastasis of an aldosterone producing adrenocortical carcinoma; format: cell-based, human
Method: Tissue from a lymphnode metastasis of an aldosterone producing adrenocortical carcinoma was obtained from a person.
(§1) Adrenal tissue was placed in ice-cold isotonic saline solution after removal and kept on ice until embedded in 3% agarose. Precision-cut slices (200 μm) were prepared in a Krumdieck tissue slicer (Alabama Research and Development, Munford, Ala., USA) in ice-cold PBS. Slices of roughly equal size were placed in culture medium on a titanium screen holder and incubated for 24 h (after a 1 h pre-incubation).
Microautoradiography: Slices were incubated with MeSO2-[^14C]DDE (2.6 μM, 35 nCi/ml) or o,p′-[^14C]DDD (3.8 μM, 60 nCi/ml) for 24 h. The labeled substances were added to the medium dissolved in DMSO. Following incubation, slices were fixed overnight in buffered formaldehyde (4%). The fixed slices were dehydrated, embedded in methacrylate, sectioned, and dipped in liquid NTB2 film emulsion, as described elsewhere (4). Autoradiograms were exposed (4° C.) for one year to enable localization of irreversible binding in metyrapone-treated slices. Autoradiograms were developed, stained, and examined as previously described (4).

[4] = system: mouse adrenal zona fasciculata cells; details: cited from earlier work
[5] = system: normal adrenal slices; experiment: Phosphorautoradiography, semi-quantification of tissue-bound radioactivity in normal adrenal slices; format: cell-based, human; details: for inhibition of irreversible binding in zona fasciculata/reticularis in metyrapone-exposed slices: metyrapone 50 μM, 24 h of exposure, compared with slices without metyrapone; for amount of tissue-bound radioactivity, MeSO2-[14C]DDE- versus o,p′-[14C]DDD-exposed slices: normal human adrenal slices, phosphorautoradiography
Method: Normal adrenal tissue, cortex as well as apparently unaffected medulla, was obtained from a […] MEN 2 patient operated on for an ipsilateral pheochromocytoma. Another normal adrenal was obtained from a patient operated on for a renal carcinoma. Adrenal tissue was placed in ice-cold isotonic saline solution after removal and kept on ice until embedded in 3% agarose. Precision-cut slices (200 μm) were prepared in a Krumdieck tissue slicer (Alabama Research and Development, Munford, Ala., USA) in ice-cold PBS. Slices of roughly equal size were placed in culture medium on a titanium screen holder and incubated for 24 h (after a 1 h pre-incubation). To inhibit CYP-dependent enzyme activity in the slices, incubation wells were supplemented with the CYP11B1 (11β-hydroxylase) inhibitor metyrapone (50 μM) when applicable. To stimulate ACTH-regulated enzyme activity in the slices, the synthetic ACTH-analogue tetracosactide (11 nM) was added. The labeled and unlabeled test substances (MeSO2-DDE and o,p'-DDD) were added to the fresh incubation medium, dissolved in DMSO (not exceeding 0.5% of the total volume). Control slices were cultured in medium containing DMSO only. Phosphorautoradiography: […] The radioactivity in the labeled areas of the adrenal sections was recorded by reading the imaging plate in a Phosphoimager (BAS 1500, Fuji, Japan). For semi-quantification of the tissue-bound radioactivity, a Windows-based bio-imaging analyzer program (ImageGauge, version 3.122, Fujifilm, Japan) was used. […] The values were adjusted according to the difference in specific activity of the two compounds. In order to check the imaging plates with respect to exposure linearity, the same plate was repeatedly exposed to the same sections for 7, 14, 28, 49 and 122 days, reading and erasing the plate between each exposure. […] Intra-exposure variation was measured on three adjacent sections on the same glass-slide.

[6] = system: bilateral non-functioning adrenocortical hyperplasia; experiment: Bound radioactivity in slices from a bilateral non-functioning adrenocortical hyperplasia; format: cell-based, human
Method: Tissue from a bilateral non-functioning adrenocortical hyperplasia was obtained from a person.
as §1
To inhibit CYP-dependent enzyme activity in the slices, incubation wells were supplemented with the CYP11B1 (11β-hydroxylase) inhibitor metyrapone (50 μM) when applicable. […]
Phosphorautoradiography: Semi-quantification of tissue-bound radioactivity was accomplished by apposing tissue sections to imaging plates (BAS-IP MP 2040S Fuji, Japan) for 49 days. The radioactivity in the labeled areas of the adrenal sections was recorded by reading the imaging plate in a Phosphoimager (BAS 1500, Fuji, Japan). For semi-quantification of the tissue-bound radioactivity, a Windows-based bio-imaging analyzer program (ImageGauge, version 3.122, Fujifilm, Japan) was used.
In order to correlate tissue-bound radioactivity and metabolically active regions in the incubated slices, the labeled areas of the images were marked selectively at 1 pixel resolution (1 pixel=100 μm). […]

[7] = system: cells from the human adrenal cortex; details: homogenate incubations, read-out: apparent Km-value; cited from earlier work
[8] = system: rat adrenal slices; details: ex vivo slice culture; cited from earlier work
[9] = system: adrenal slices; experiment: Steroid hormone secretion from adrenal slices into culture medium (HPLC); format: cell-based, human; details: 25 μM
Method: as §1
(§2) To inhibit CYP-dependent enzyme activity in the slices, incubation wells were supplemented with the CYP11B1 (11β-hydroxylase) inhibitor metyrapone (50 μM) when applicable. To stimulate ACTH-regulated enzyme activity in the slices, the synthetic ACTH-analogue tetracosactide (11 nM) was added. The labeled and unlabeled test substances (MeSO2-DDE and o,p′-DDD) were added to the fresh incubation medium, dissolved in DMSO (not exceeding 0.5% of the total volume). Control slices were cultured in medium containing DMSO only.
Cortisol, 11-deoxycortisol, corticosterone, 11-deoxycorticosterone, aldosterone, androstenedione and 17-OH-progesterone concentrations in the medium were measured with HPLC using UV detection (241 nm), as described previously (4). The steroid products were separated using a linear gradient of 18–80% acetonitrile (1 ml/min), obtained by diluting acetonitrile/tetrahydrofuran (90/10 vol %) with methanol/water (40/60 vol %), for 32 min. The amounts of steroids were expressed as nmol/slice. The detection level of cortisol/corticosterone was 5 pmol/ml medium. To adjust for differences in slice size, the steroids were expressed as a percentage of the amount of cortisol from the same slice.

[10] = system: normal adrenal slices; experiment: Microautoradiography of irreversible binding in precision-cut normal adrenal slice culture; format: cell-based; details: normal human adrenal slices, 24 h; MeSO2-[14C]DDE 2.6 μM, o,p′-[14C]DDD 3.8 μM
Method: Normal adrenal tissue, cortex as well as apparently unaffected medulla, was obtained from a […] MEN 2 patient operated on for an ipsilateral pheochromocytoma. Another normal adrenal was obtained from a patient operated on for a renal carcinoma.
as §1, §2
Microautoradiography: Slices were incubated with MeSO2-[^14C]DDE (2.6 μM, 35 nCi/ml) or o,p′-[^14C]DDD (3.8 μM, 60 nCi/ml) for 24 h. The labeled substances were added to the medium dissolved in DMSO. […]

[11] = target: T1, CYP 11B1; set-up: expressed in transfected cells; host or cells: V79 hamster cells; details: 5 μM; V79 hamster cells transfected with human CYP11B1 DNA; cited from earlier work
[12] = system: adrenocortical carcinoma; details: cited from earlier work

Row | Compound | irreversible binding in mouse adrenal cortex slices [2] | binding to adrenocortical carcinoma cells [3] | inhibition of irreversible binding in zona fasciculata/reticularis in metyrapone-exposed slices [5] | amount of tissue-bound radioactivity, MeSO2-[14C]DDE- versus o,p′-[14C]DDD-exposed slices [5] | Km [7] | irreversible binding in rat adrenal slices [8] | cortisol or corticosterone secretion compared with control slices [9] | effect on steroid secretion compared with control [9] | labeling of adrenal zones in autoradiograms (irreversible binding) [10] | also measured
1 | CS(=O)(=O)c1cc(C(=C(Cl)Cl)c2ccc(Cl)cc2)ccc1Cl [MeSO2-DDE, 1-(4-Chloro-3-methylsulphonylphenyl)-1-(4-chlorophenyl)-2,2-dichloroethene] | strong irreversible binding | irreversibly bound | below the detection limit | no significant difference | 1.4 µM | very weak binding | no significant difference | increased accumulation of 11-deoxycorticosterone, 11-deoxycortisol and androstenedione | high and selective labeling of zona fasciculata and zona reticularis; also recorded: confined to both zona fasciculata and zona reticularis | effect on CYP 11B1 enzyme activity [1]: inhibit CYP 11B1 enzyme activity; binding to adrenocortical carcinoma cells ([3]; listed as MeSO2-[^14C]DDE): selective binding; plasma corticosterone levels ([4]; mice, following exposure): reduced plasma corticosterone levels; irreversible binding to cellular macromolecules in vivo ([4]; mouse adrenal zona fasciculata cells): cell-specific irreversible binding; irreversible binding in nonfunctional adrenocortical hyperplasia [6]: irreversibly bound; 11-deoxycortisol in the culture medium [9]: detectable only in the culture medium of MeSO2-DDE-exposed slices; 11-deoxycorticosterone secretion to the medium ([9]; compared with o,p′-DDD exposed slices and control slices): significant increase; androstenedione secretion ([9]; compared with o,p′-DDD-exposed slices): increased
2 | CC(C)(C(=O)c1cccnc1)c1cccnc1 [metyrapone] | – | – | – | – | – | – | – | – | – | effect of metyrapone on irreversible MeSO2-[14C]DDE-binding and corticosterone secretion ([2]; mouse adrenal slice culture and mouse adrenal homogenate): inhibits; effect of metyrapone on irreversible protein binding and toxicity of MeSO2-DDE in the adrenal zona fasciculata ([4]; mouse, in vivo): effectively blocked; block of synthesis of cortisol from 11-deoxycortisol [11]: 86%
3 | Clc1ccc(C(c2ccccc2Cl)C(Cl)Cl)cc1 (stereo not drawn) [o,p′-DDD, 1-(2-chlorophenyl)-1-(4-chlorophenyl)-2,2-dichloroethane] | negligable irreversible binding | selective binding | 32% | no significant difference | 24 µM | negligable irreversible binding | no significant difference | did not produce any visible effect | high and selective labeling of zona fasciculata and zona reticularis; also recorded: localized in a similar way | irreversible binding in mouse adrenal cortex slices ([2]; listed as o,p′-[^14C]DDD): very weak; patients not cured by surgery who responded to treatment ([12]; adrenocortical carcinoma patients): 194 out of 551; side effects ([12]; patients, therapeutic doses): dose-dependent side effects in the gastrointestinal tract (nausea, vomiting and diarrhea) and CNS (dizziness and headaches); therapeutically insufficient plasma concentrations ([12]; patients): below 10 μg/ml and < 31 μM
